Legend:
[1] = system: IL-12 production from mouse intraperitoneal macrophages; assay: IC50 for IL-12 production from mouse macrophages, LPS + IFN-γ (Experiment 19); type: cell-based; conditions: Mus musculus, Macrophage, 20 h, read-out: IC50 Concentration IL-12
Source text: (§1) After completion of the culture, the supernatant in each well was collected and assayed for cytokines and prostaglandin E2 (called “PGE2”, hereinafter) with ELISA.

[2] = system: IL-4 production of spleen cells; assay: IL-4 production of spleen cells stimulated with anti-CD3 antibody, from gel-treated mice (Experiment 16); type: in vivo, NC/Nga mice
Experimental: (§2) On Friday of the 6th week of the induction (46th day after initiating the application), all the mice were sacrificed, followed by isolating their spleens and collecting spleen cells in usual manner. […] To each well 2 μg/mL of “Purified Mouse CD3ε Monoclonal Antibody”, a product name of an anti-CD3 antibody, commercialized by Cosmo Bio Co., Ltd., Tokyo, Japan, was added, and the cells were incubated at 37° C. for three days in a 5% v/v CO2 incubator, followed by assaying the levels of cytokines in each supernatant thereof.
(§3) The results are in Table 19 in parallel.

[3] = system: IL-6 production from mouse intraperitoneal macrophages; assay: IC50 for IL-6 production from mouse macrophages, LPS + IFN-γ (Experiment 19); type: cell-based; conditions: mouse macrophages, LPS and IFN-γ, 20 hours
Source text: as §1

[4] = system: IL-1α production from NHEK cells; assay: IL-1α production from NHEK cells irradiated with ultraviolet B (Experiment 17); type: cell-based, human; conditions: for IL-1α: NHEK cells, stimulation by ultraviolet rays
Experimental: (§4) “CELLMATRIX TYPE IV”, a product name of collagen for tissue culture commercialized by Nitta Gelatin Inc., Osaka, Japan, which had been diluted with PBS(K-) by 10 times, was previously placed in “FALCON 35-3001”, a product name of 35 mm petri dish commercialized by Becton Dickinson and Company, NJ, USA, in an amount of 1 mL/plate, and then allowed to stand at ambient temperature for 10 min, followed by removing an excessive amount of CELLMATRIX, drying the petri dish in air, and washing it thrice with PBS(K-). […] The cells were cultured at 37° C. in a 5% v/v CO2 incubator. On the 2nd and 4th days after the cell inoculation, the medium was replaced with EpiLife medium free of EDGS (1 mL/plate). On the 5th day after the cell inoculation, the supernatant was removed, and the petri dish was washed twice by adding 1 mL/petri dish of Hanks' balanced salt solution (called “HBSS (−) buffer”, hereinafter). Further, 2 mL/petri dish of HBSS (−) buffer was added to the petri dish which was then placed in the position 15 cm apart from an ultraviolet ray light source and irradiated with 40 mJ/cm^2 of ultraviolet B radiation. […] As an ultraviolet ray light source, “NS-8F”, a light source for actual use commercialized by Sanwa Medical Co., Ltd., Okayama, Japan, equipped with an ultraviolet B radiation lamp was used, and the radiation dose was measured on “UVR-305/365D (II)”, an ultraviolet ray meter commercialized by Topcon Corporation, Tokyo, Japan. TNF-α was assayed by the same method as in Experiment 2. The remaining other cytokines were assayed with an IL-1α assay kit, commercialized by R & D Systems Inc., MN, USA, and an IL-8 assay kit commercialized by BioLegend, CA, USA.

[5] = system: mice with colitis induced by dextran sulfate sodium; assay: Dextran sulfate sodium colitis mice: diarrhea/hematochezia scores, DAI, haptoglobin (Experiment 13); type: in vivo, C57BL/6 mice; conditions: dextran sulfate sodium intake, 94 mg/kg orally once a day
Experimental: Dextran sulfate sodium (commercialized by MP Biomedicals, CA, USA, molecular weight of 36,000 to 50,000) was dissolved in tap water, and all the mice of these five groups consisting of eight heads each were allowed to freely take the solution for five days (Experiment groups 2 to 5). […] The eight mice of the remaining one group were administered through a gastric tube with PBS once a day at a dose of 0.2 mL/head over 11 days from the day of initiating the administration of dextran sulfate sodium (Experiment group 2). The five mice of one group, which had not been administered with dextran sulfate sodium, were bred for 11 days on the normal feed while allowing them to take tap water freely (Experiment group 1).
The mice were weighed and their degree of diarrhea and hematochezia were macroscopically observed every day over 11 days from the day of initiating the intake of dextran sulfate sodium. The body weight reduction percentage (%) was determined by dividing the body weight of a mouse at 11th day after initiating the intake of dextran sulfate sodium by the body weight of the mouse at the day of initiating the intake, and multiplying the value by 100, and subtracting the resulting value from 100. The scores of diarrhea and hematochezia and the body weight reduction percentage (%) in each mouse were scored according to the criteria as shown in Table 13. For each group, the average of the total scores of diarrhea and hematochezia on days ranging from the day (intake day 0) of initiating the intake of dextran sulfate sodium to 11th day therefrom (intake day 10) are determined and shown in Table 14. The total scores of diarrhea, hematochezia, and body weight reduction percentage for each mouse at 11th day (intake day 10) after initiating the intake of dextran sulfate sodium are calculated for disease activity index (DAI) used as an index for colitis, averaged for each group, and shown in Table 14. On 11th day after initiating the intake of dextran sulfate sodium, each mouse was collected blood, followed by assaying haptoglobin or an acute phase protein, as an index for inflammatory, on an ELISA kit commercialized by Life Diagnostics USA, and averaging the data for each group. The results are in Table 14 in parallel. Since one mouse in Experiment group 2 administered with only dextran sulfate sodium was dead at 11th day after initiating the intake of dextran sulfate sodium, the results of Experiment group 2 at 11th day (intake day 10) after initiating the intake of dextran sulfate sodium represent the average of seven mice.

[6] = system: IL-5 production of spleen cells; assay: IL-5 production of spleen cells stimulated with anti-CD3 antibody, from gel-treated mice (Experiment 16); type: in vivo, NC/Nga mice
Experimental: as §2, §3

[7] = system: TNF-α production from NHEK cells; assay: TNF-α production from NHEK cells irradiated with ultraviolet B (Experiment 17); type: cell-based, human; conditions: for TNF-α: NHEK cells, stimulation by ultraviolet rays
Experimental: as §4

[8] = compared to mice applied with gel prepared by adding refined water (Experiment group 1)
[9] = supernatant of spleen cells stimulated with anti-CD3 antibody, picryl chloride-sensitized mice applied with gel
[10] = UVB 40 mJ/cm^2, supernatant at six hours

Structure (SMILES): OC[C@H]1O[C@@H](n2cnc3c(O)ncnc32)[C@H](O)[C@@H]1O [IN, inosine]
- IC50 [1]: > 200 µM
- production level of IL-4 of spleen cells stimulated with the anti-CD3 antibody [2, 8]: showed no difference
- Ratio of IL-4/IFN-γ ([2]; spleen cells stimulated with anti-CD3 antibody, picryl chloride-sensitized mice applied with gel): 0.70
- Content of IL-4 [2, 9]: 9.3 ng/mL
- IC50 Concentration IL-6 [3]: Enhanced
- IL-1α ([4]; 1 μM): 246 pg/mL
- IL-1α ([4]; 5 μM): 243 pg/mL
- IL-1α ([4]; 10 μM): 228 pg/mL
- production of IL-1α from NHEK cells augmented by ultraviolet rays [4, 10]: did not influence
- Content of haptoglobin ([5]; blood on 11th day): 3.9 mg/mL
- Total scores of diarrhea and hematochezia, day 0 ([5]; day 0): 0
- Total scores of diarrhea and hematochezia, day 1 ([5]; day 1): 0
- Total scores of diarrhea and hematochezia, day 2 ([5]; day 2): 0
- Total scores of diarrhea and hematochezia, day 3 ([5]; day 3): 0.1
- Total scores of diarrhea and hematochezia, day 4 ([5]; day 4): 0.8
- Total scores of diarrhea and hematochezia, day 5 ([5]; day 5): 1.1
- Total scores of diarrhea and hematochezia, day 6 ([5]; day 6): 1.2
- Total scores of diarrhea and hematochezia, day 7 ([5]; day 7): 1.1
- Total scores of diarrhea and hematochezia, day 8 ([5]; day 8): 1.2
- Total scores of diarrhea and hematochezia, day 9 ([5]; day 9): 1.2
- DAI (total scores of diarrhea, hematochezia, and body weight reduction percentage), day 10 ([5]; day 10): 4.1
- Total scores of diarrhea and hematochezia, day 10 ([5]; day 10): 1.3
- production level of IL-5 of spleen cells stimulated with the anti-CD3 antibody [6, 8]: showed no difference
- Content of IL-5 [6, 9]: 209 ng/mL
- TNF-α ([7]; 1 μM): 141 pg/mL
- TNF-α ([7]; 5 μM): 142 pg/mL
- TNF-α ([7]; 10 μM): 128 pg/mL
- production of TNF-α from NHEK cells induced by ultraviolet rays [7, 10]: did not influence

Source: patent US9757408B2 (Hayashibara Co., Ltd., priority 2010, dated 2017)
